Results reported in article PMC9555560, “Fast relaxing red and near-IR switchable azobenzenes with chalcogen and halogen substituents: periodic trends, tuneable thermal half-lives and chalcogen bonding” (Chemical Science, 2022).

Key:
Assay type in all cases: physicochemical
[1] = GSH stability study (decay of absorbance in phosphate buffer with 10 mM glutathione); conditions: for t1 of 1st order exponential decay fit (decomposition with GSH): 100 mM phosphate buffer containing 10 mM GSH degassed with N2, 298 K; for τ 1/2 (10 mM GSH): 100 mM phosphate buffer pH 7 containing 10 mM GSH, degassed with N2, 298 K, para substituent CH2NH2·TFA
Procedure: Finally, the stability of the X4 derivatives were assessed by exposing them to the highest expected intracellular concentration of glutathione (GSH, 10 mM).[28] This was achieved by treating the Boc-protected amino-methyl derivatives X4-NHBoc (X = F, Cl, Br, I, OMe, SMe and SeMe) with TFA to remove the protecting groups. The resulting ammonium-appended AB derivative was dissolved in N2-degassed 100 mM phosphate buffer at pH 7 containing 10 mM GSH, and the changes in absorbance were monitored over an extended period. […] Strong σ-donating substituents are also proposed to aid diazo lone pair protonation, and subsequent GSH attack.[25]
A 10 mM reduced glutathione (GSH) solution was prepared in degassed 100 mM sodium phosphate buffer (at least 15 minutes of N 2 bubbled through the buffer solution prior to addition to GSH). The absorption of the solution was measured periodically at 25 °C, then fitted to a 1 st Order exponential […]
Equation y = y0 + A1*exp(-(x-x0)
Figure S366. Decomposition of F4-CH2NH2•TFA Conditions: 100 mM phosphate buffer containing 10 mM GSH degassed with N2. T = 298 K. […]

[2] = UV-vis spectra of the E isomers (n → π* absorption maximum); conditions: E isomer, DMSO
From the text: The UV-vis spectra of the (E)-X4 derivatives and (E)-X2,m-Y2 are shown in Fig. 3 (analogous spectra for the Z isomers, and deconvoluted spectra are available in the ESI ^†). […] The n → π* transition maximum, λmax, typically followed the order meta-H > –NMe2 > –OMe and ortho-S > Cl > F. It is clear from these experiments that the four ortho X substituents in the X4 derivatives are essential for achieving the deeply red-shifted tails which allows for red/near-IR triggered photo-isomerisation.
(§1) All UV-vis spectra were determined in DMSO solution. Extinction coefficients were determined by recording a UV-vis spectra for the E isomer at 10, 20, 30, 40 µM in DMSO respectively. The absorbance at the maximum of the π - π* transition of the E‐isomers was plotted against concentration (Beer-Lambert plot) to determine the molar extinction coefficient ε. For each slow relaxing compound, the E isomer sample at 40 µM was irradiated with the appropriate wavelength of light to generate the photo-stationary state, and another spectrum was run. This spectrum was normalised to units of ε and overlaid with the dark (100% E isomer) spectrum.

[3] = Half-life of the Z → E thermal isomerisation (UV-vis absorbance followed over time after irradiation); conditions: for τ 1/2: 298 K
Procedure: (§2) The E → Z photo-isomerisation and half-life for the Z → E thermal isomerisation was evaluated for all derivatives (Fig. 7 and Table 1, see ESI ^† for original data). To our surprise, the half-lives for (Z)-X2,m-Y2 derivatives were in the order of hours to days for X = F and Cl: the effect of the meta group was not as drastic as anticipated. We typically observed a ∼4 fold decrease in half-life by substituting H with OMe, and a further 3-fold drop from OMe to NMe2 for X = F, Cl and SEt. The nature of the ortho-substituent appeared to be the main influence on τ1/2 (F > Cl ≫ SEt). However, these predictable trends observed for the meta-substitution allow for precise tuning of thermal half-lives. The photo-stationary states (PSSs) of these derivatives ranged from 48–77% Z isomer (Table 1).
All UV-vis spectra were determined in DMSO solution. […]
Lambert plot) to determine the molar extinction coefficient ε. For each slow relaxing compound, the E isomer sample at 40 µM was irradiated with the appropriate wavelength of light to generate the photo-stationary state, and another spectrum was run. This spectrum was normalised to units of ε and overlaid with the dark (100% E isomer) spectrum. […]
Photo-irradiation of liquid samples was carried out using Thorlabs high-power mounted LEDs (models […]
M530L4 (green, 530 nm); in-house custom built set-ups using optical components supplied by Thorlabs, as described in reference 2
Equation y = y0 + A1*exp(-(x-x0)/t1
Figure S327. Lifetime plot of (Z)-Br4-NHBoc based on following UV-Vis absorbance over time after irradiation with 625 nm light (rt, DMSO). Data consistent with NMR half-life data.
Figure S328. Reversible of switching of I4-NHBoc over time after irradiation with 6 60 nm light (rt, DMSO). Dots : raw data, Line: 1st order Exponential Fit […]

[4] = E → Z photo-isomerisation with LEDs / photo-stationary state (PSS) determination; conditions: under irradiation
Procedure: as §2
Remarkably, it was possible to photo-switch the tetra-iodo derivative I4-ester using near-IR light (730 nm) (Fig. 8C). […] Photo-isomerisation was not detected for the ortho-telluro derivatives. This is consistent with findings by Haberhauer and co-workers, who propose that the strong chalcogen bonds in the E isomer of a PhTe-substituted azobenzene lead to dramatic energy differences between the E and Z isomers, which suppresses photoswitching.[43] The photo-stationary states of the halogen X4 derivatives range from 50–84% (Table 1) and could also be determined for the slower relaxing chalcogen derivatives (PSS 46–95%, see Fig. S308–S323 ^† for original data).
as §1, with “spectrum. […]” for “spectrum.”

[5] = Z → E thermal isomerisation, DMSO

λ max of n → π* transition [2] [nm]	τ 1/2 [3, 5]	Structure (SMILES)	further results
		CC(C)(C)OC(=O)NCc1cc(F)c(/N=N/c2c(F)cc(CNC(=O)OC(C)(C)C)cc2F)c(F)c1 [F]	t1 of 1st order exponential decay fit (decomposition with GSH) [1]: 3748 ± 3.403 s; τ 1/2 (10 mM GSH) [1]: 0.7 h
514.3	5 m	CC(C)(C)OC(=O)NCc1cc(I)c(N=Nc2c(I)cc(CNC(=O)OC(C)(C)C)cc2I)c(I)c1 [I4-NHBoc]	τ1/2 (Z) ([3]; Z → E thermal isomerisation, printed in Fig. 1 / Fig. 8): 5 min
501.3	2 m	CC(=O)OCc1cc(I)c(/N=N/c2c(I)cc(COC(C)=O)cc2I)c(I)c1 [I4-OAc]	
405.5	16 h	CN(C)c1cc(N=Nc2cc(N(C)C)c(CNC(=O)OC(C)(C)C)cc2F)c(F)cc1CNC(=O)OC(C)(C)C [F2,m-(NMe2)2]	
543.0	0.0389 h	CCSc1cc(CNC(=O)OC(C)(C)C)c(N(C)C)cc1/N=N/c1cc(N(C)C)c(CNC(=O)OC(C)(C)C)cc1SCC [(SEt)2,m-(NMe2)2]	
432.1	4 h	CN(C)c1cc(N=Nc2cc(N(C)C)c(CNC(=O)OC(C)(C)C)cc2Cl)c(Cl)cc1CNC(=O)OC(C)(C)C [Cl2,m-(NMe2)2]	
514.4	3 m	[N-]=[N+]=NCc1cc(I)c(/N=N/c2c(I)cc(CN=[N+]=[N-])cc2I)c(I)c1 [I4-N3]	
431.3	44 m	CCSc1cc(CNC(=O)OC(C)(C)C)ccc1/N=N/c1ccc(CNC(=O)OC(C)(C)C)cc1SCC [(SEt)2,m-H2]	
514.2	5 m	CSc1cccc(SC)c1/N=N/c1c(SC)cccc1SC [(SMe)4-H]	
464.1	9 m	CCSc1cc(CNC(=O)OC(C)(C)C)c(OC)cc1/N=N/c1cc(OC)c(CNC(=O)OC(C)(C)C)cc1SCC [(SEt)2,m-OMe2]	
500.3		OCc1cc(I)c(/N=N/c2c(I)cc(CO)cc2I)c(I)c1 [I4-OH]	
530.2		CC(C)(C)OC(=O)NCc1ccc(/N=N/c2ccc(CNC(=O)OC(C)(C)C)cc2N2CCCC2)c(N2CCCC2)c1 [(N(CH2)4)2,m-H]	
475.0	18 h	COc1cc(N=Nc2cc(OC)c(CNC(=O)OC(C)(C)C)cc2Cl)c(Cl)cc1CNC(=O)OC(C)(C)C [Cl2,m-OMe2]	
459.8	197 h	COc1cc(CNC(=O)OC(C)(C)C)cc(OC)c1/N=N/c1c(OC)cc(CNC(=O)OC(C)(C)C)cc1OC [(OMe)4-NHBoc]	
462.6	160 h	CC(C)(C)OC(=O)NCc1cc(Cl)c(N=Nc2c(Cl)cc(CNC(=O)OC(C)(C)C)cc2Cl)c(Cl)c1 [Cl4-NHBoc]	
425.4		COc1cc(CNC(=O)OC(C)(C)C)c(OC)c(F)c1/N=N/c1c(OC)cc(CNC(=O)OC(C)(C)C)c(OC)c1F [(OMe)2F2,m-OMe2-NHBoc]	Stability to light [4]: unstable to light
519.6	0.0128 h	CCOC(=O)c1cc(I)c(N=Nc2c(I)cc(C(=O)OCC)cc2I)c(I)c1 [I4-ester]	
454	1.25y	CC(C)(C)OC(=O)NCc1cc(F)c(N=Nc2c(F)cc(CNC(=O)OC(C)(C)C)cc2F)c(F)c1 [F4-NHBoc]	
387.1	77 h	COc1cc(N=Nc2cc(OC)c(CNC(=O)OC(C)(C)C)cc2F)c(F)cc1CNC(=O)OC(C)(C)C [F2,m-OMe2]	
590.0	0.0144 h	CCOC(=O)c1cc(SCC)c(/N=N/c2c(SCC)cc(C(=O)OCC)cc2SCC)c(SCC)c1 [(SEt)4-ester]	
511.8	3 m	O=C1c2ccccc2C(=O)N1Cc1cc(I)c(/N=N/c2c(I)cc(CN3C(=O)c4ccccc4C3=O)cc2I)c(I)c1 [I4-NPhth]	
500.4	3 m	CC(C)Sc1cc(CNC(=O)OC(C)(C)C)cc(SC(C)C)c1/N=N/c1c(SC(C)C)cc(CNC(=O)OC(C)(C)C)cc1SC(C)C [(S^iPr)4-NHBoc]	
514.5	3 m	CCSc1cc(CNC(=O)OC(C)(C)C)cc(SCC)c1/N=N/c1c(SCC)cc(CNC(=O)OC(C)(C)C)cc1SCC [(SEt)4-NHBoc]	
520.8	0.00556 h	N#Cc1cc(I)c(/N=N/c2c(I)cc(C#N)cc2I)c(I)c1 [I4-CN]	
471.0	34 h	CC(C)(C)OC(=O)NCc1ccc(N=Nc2ccc(CNC(=O)OC(C)(C)C)cc2Cl)c(Cl)c1 [Cl2,m-H2]	
		CC(C)(C)OC(=O)NCc1cc(I)c(/N=N/c2c(I)cc(CNC(=O)OC(C)(C)C)cc2I)c(I)c1 [I]	t1 of 1st order exponential decay fit (decomposition with GSH) [1]: 3971 ± 9.47 s; τ 1/2 (10 mM GSH) [1]: 0.7 h
465.9	12 h	CC(C)(C)OC(=O)NCc1cc(Br)c(N=Nc2c(Br)cc(CNC(=O)OC(C)(C)C)cc2Br)c(Br)c1 [Br4-NHBoc]	t1 of exponential fit (lifetime plot of Z isomer) ([3]; after irradiation with 625 nm light, rt, DMSO): 1011 ± 6.62 min
452.5	75 h	CC(C)(C)OC(=O)NCc1ccc(N=Nc2ccc(CNC(=O)OC(C)(C)C)cc2F)c(F)c1 [F2,m-H2]	
		CC(C)(C)OC(=O)NCc1cc(Cl)c(/N=N/c2c(Cl)cc(CNC(=O)OC(C)(C)C)cc2Cl)c(Cl)c1 [Cl]	t1 of 1st order exponential decay fit (decomposition with GSH) [1]: 14241.72745 ± 14.23 s; τ 1/2 (10 mM GSH) [1]: 2.7 h
		CC(C)(C)OC(=O)NCc1cc(Br)c(N=Nc2c(Br)cc(CNC(=O)OC(C)(C)C)cc2Br)c(Br)c1 [Br]	t1 of 1st order exponential decay fit (decomposition with GSH) [1]: 25249.56343 ± 57.34 s; τ 1/2 (10 mM GSH) [1]: 5 h

Structure (SMILES)	λ max of n → π* transition [2] [nm]	τ 1/2 [3, 5]	further results
C[Se]c1cccc([Se]C)c1/N=N/c1c([Se]C)cccc1[Se]C [(SeMe)4-H]	533.9	0.0222 h	
C[Se]c1cc(CNC(=O)OC(C)(C)C)cc([Se]C)c1/N=N/c1c([Se]C)cc(CNC(=O)OC(C)(C)C)cc1[Se]C [(SeMe)4-NHBoc]	534.3	0.00944 h	
C[Te]c1cccc(F)c1/N=N/c1c(F)cccc1[Te]C [Te2F2-H]	543		
CCOP(=O)(OCC)c1ccccc1/N=N/c1ccccc1P(=O)(OCC)OCC [(PO(OEt)2)2,m-H]	458.2		
CCOC(=O)c1cc([Se]C)c(/N=N/c2c([Se]C)cc(C(=O)OCC)cc2[Se]C)c([Se]C)c1 [(SeMe)4-ester]	588.8	0.000694 h	
C[Te]c1cccc([Te]C)c1/N=N/c1c([Te]C)cccc1[Te]C [(TeMe)4-H]	518.5		
